We go through ten compounds from ChEMBL document CHEMBL1201862, “PubChem BioAssay data set” (2004).

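How tested: cells in 96-well plates exposed to compound for 48 hours at five concentrations. GI50 is the concentration that inhibits growth by half.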 Activity calls are given as the source filed them. Cut-off read from the data, not from the text of the source: active = GI50 up to about 1.1 µM and inactive = higher.

Test systems include DU-145; MDA-MB-231; HCT-15; EKVX; OVCAR-3; NCI/ADR-RES; CCRF-CEM; HCC 2998; COLO 205; SN12C; A498; M14; SW-620; UACC-62; KM12; T47D; Hs-578T; CAKI-1; SNB-19; LOX IMVI.
Assay in all cases: inhibition of tumour cell growth, NCI panel, 48 h

Turning to `Cc1c(C)c(CC(=O)N2CC2)c(C)c(C)c1CC(=O)N1CC1`, the GI50 is 2.1 µM (inactive) in the assay on DU-145; 19.2 µM (inactive) with MDA-MB-231; 16.8 µM in the assay on HCT-15; 23.2 µM (inactive) in the assay with EKVX; 19.5 µM (inactive) with OVCAR-3; 11 µM (inactive) in the assay on NCI/ADR-RES. The GI50 in the assay with CCRF-CEM was 1.15 µM (inactive); in the assay with HCC 2998, 11.4 µM (inactive); in the assay on COLO 205 it was 14.7 µM (inactive); with SN12C it was 4.03 µM (inactive); in the assay with A498, 16 µM (inactive); in the assay with M14, 5.25 µM (inactive). In addition, the GI50 with SW-620 was 14.5 µM (inactive); with UACC-62, 3.33 µM (inactive); in the assay on KM12 it was 17.1 µM (inactive); in the assay on T47D, 6.61 µM (inactive); with Hs-578T it was 30.3 µM (inactive); with CAKI-1 it was 2.12 µM (inactive). Also, the GI50 is 10.6 µM (inactive) in the assay on SNB-19 and 5.19 µM (inactive) with LOX IMVI.

With `CC(C)=CCc1cc(C2COc3cc4c(c(O)c3C2=O)C=CC(C)(C)O4)c(O)cc1O` (centres undefined), the GI50 in the assay on DU-145 was 14.5 µM (inactive); in the assay on MDA-MB-231 it was 14.2 µM (inactive); in the assay on HCT-15, 13.7 µM; in the assay with EKVX, 12.7 µM (inactive); in the assay with OVCAR-3, 14.3 µM (inactive); in the assay on NCI/ADR-RES, 22.6 µM (inactive). Also, the GI50 was 7.53 µM (inactive) with CCRF-CEM; 18.7 µM (inactive) in the assay on HCC 2998; 20.2 µM (inactive) in the assay on COLO 205; 13.5 µM (inactive) in the assay on SN12C; 16.5 µM (inactive) in the assay with A498; 13.4 µM (inactive) in the assay with M14. Further, the GI50 in the assay on SW-620 is 22 µM (inactive); in the assay on UACC-62 it was 15.7 µM (inactive); with KM12, 14.9 µM (inactive); in the assay with T47D, 4.99 µM (inactive); in the assay with Hs-578T, 17.8 µM (inactive); in the assay on CAKI-1 it was 17.2 µM (inactive). Further, the GI50 was 19.3 µM (inactive) in the assay with SNB-19 and 17.7 µM (inactive) with LOX IMVI.

For `Cc1ccc2c(c1)C(=S)N1CSCC1c1nncn1-2` (centres undefined), the GI50 in the assay with DU-145 is > 100 µM (inactive); with MDA-MB-231 it was > 100 µM (inactive); in the assay with HCT-15, above 100 µM; in the assay on EKVX it was > 100 µM (inactive); in the assay with OVCAR-3, > 100 µM (inactive); in the assay on NCI/ADR-RES, > 100 µM (inactive). Further, the GI50 in the assay with CCRF-CEM, in the assay with HCC 2998, with COLO 205, with SN12C, with A498 and with M14 was > 100 µM (inactive) throughout. Further, the GI50 with SW-620, in the assay on UACC-62, in the assay on KM12, in the assay with T47D, with Hs-578T and with CAKI-1 was > 100 µM (inactive) throughout. The GI50 with SNB-19 and in the assay with LOX IMVI was > 100 µM (inactive) in each case.

For the compound `COc1cc(/C=C(\C#N)C(N)=C(C#N)C#N)cc(O)c1O`, the GI50 was > 100 µM (inactive) in the assay with DU-145; > 100 µM (inactive) with MDA-MB-231; above 68.5 µM in the assay on HCT-15; > 89.7 µM (inactive) in the assay on EKVX; > 56.4 µM (inactive) in the assay on OVCAR-3; > 100 µM (inactive) in the assay with NCI/ADR-RES. Further, the GI50 with CCRF-CEM is 22.7 µM (inactive); with HCC 2998 it was > 100 µM (inactive); in the assay with COLO 205 it was > 100 µM (inactive); in the assay on SN12C, > 36 µM (inactive); in the assay on A498 it was > 100 µM (inactive); with M14, > 100 µM (inactive). Besides, the GI50 was > 76.4 µM (inactive) in the assay with SW-620; > 93.5 µM (inactive) in the assay with UACC-62; > 84.3 µM (inactive) in the assay with KM12; 91.8 µM (inactive) in the assay on T47D; 42.9 µM (inactive) with Hs-578T; > 100 µM (inactive) in the assay on CAKI-1. The GI50 in the assay on SNB-19 is > 87.5 µM (inactive); in the assay on LOX IMVI it was > 61.4 µM (inactive).

Turning to `COP(=O)(/C=C/C(NC(=O)C(Cl)(Cl)Cl)c1ccccc1)OC` (centres undefined), the GI50 with DU-145 is > 100 µM (inactive); in the assay on MDA-MB-231 it was > 100 µM (inactive); in the assay on HCT-15, above 100 µM; in the assay on EKVX, > 100 µM (inactive); in the assay with OVCAR-3, > 100 µM (inactive); in the assay with NCI/ADR-RES, > 100 µM (inactive). Further, the GI50 in the assay on HCC 2998, in the assay on COLO 205, with SN12C, in the assay with A498, in the assay with M14 and with SW-620 was > 100 µM (inactive) throughout. The GI50 with UACC-62, in the assay with KM12, with T47D, with Hs-578T, in the assay with CAKI-1 and in the assay on SNB-19 was > 100 µM (inactive) in each case. Moreover, the GI50 with LOX IMVI was > 100 µM (inactive).

`CN1CCN(CCCNN)CC1`: the GI50 is > 100 µM (inactive) with DU-145; > 100 µM (inactive) in the assay with MDA-MB-231; above 100 µM with HCT-15; > 100 µM (inactive) in the assay with EKVX; > 100 µM (inactive) in the assay with OVCAR-3; > 100 µM (inactive) with NCI/ADR-RES. The GI50 in the assay with HCC 2998, in the assay on COLO 205, in the assay on SN12C, with A498, with M14 and with SW-620 was > 100 µM (inactive) in each case. Also, the GI50 in the assay with UACC-62, in the assay with KM12, in the assay with T47D, with Hs-578T, with CAKI-1 and in the assay with SNB-19 was > 100 µM (inactive) each time. For the same compound, the GI50 with LOX IMVI was > 100 µM (inactive).

Consider `O=C(/C=C/c1ccccc1)CCC1C(=O)NC(=O)NC1=O`, for which the GI50 is > 100 µM (inactive) in the assay on DU-145; > 100 µM (inactive) with MDA-MB-231; above 100 µM in the assay with HCT-15; > 100 µM (inactive) in the assay with EKVX; > 100 µM (inactive) with OVCAR-3; > 100 µM (inactive) with NCI/ADR-RES. In addition, the GI50 in the assay with HCC 2998, with COLO 205, in the assay with SN12C, in the assay on A498, in the assay with M14 and with SW-620 was > 100 µM (inactive) throughout. In addition, the GI50 in the assay with UACC-62, in the assay with KM12, in the assay on T47D, with Hs-578T, with CAKI-1 and in the assay with SNB-19 was > 100 µM (inactive) throughout. Further, the GI50 in the assay on LOX IMVI is > 100 µM (inactive).

Consider `COc1cc(S(=O)(=O)Nc2nc(-c3ccc(N)cc3)cs2)ccc1Cl`, for which the GI50 in the assay with DU-145 was > 100 µM (inactive); in the assay with MDA-MB-231 it was > 100 µM (inactive); in the assay on HCT-15, 63.8 µM; in the assay on EKVX, 42.7 µM (inactive); in the assay with OVCAR-3, 54.3 µM (inactive); in the assay with NCI/ADR-RES it was 89.5 µM (inactive). Besides, the GI50 with CCRF-CEM was 48.5 µM (inactive); in the assay with COLO 205 it was 32.1 µM (inactive); with SN12C, 34.4 µM (inactive); in the assay with A498, 84.3 µM (inactive); with M14, 59.8 µM (inactive); in the assay with SW-620, > 100 µM (inactive). Moreover, the GI50 in the assay with UACC-62 is 28.4 µM (inactive); in the assay with KM12, 72.1 µM (inactive); in the assay with T47D it was 38.5 µM (inactive); in the assay with Hs-578T, 91.4 µM (inactive); in the assay on CAKI-1, 73.5 µM (inactive); in the assay with SNB-19, 91.4 µM (inactive). In the assay with LOX IMVI, the GI50 was 91.8 µM (inactive).

On to `CC(=N/NC(=S)N1CCCCC1)/C(C)=N\NC(=S)N1CCCCC1`, for which the GI50 in the assay with DU-145 is 1.61 µM (inactive); with MDA-MB-231, 2 µM (inactive); in the assay on HCT-15 it was 2.34 µM; with EKVX it was 1.63 µM (inactive); in the assay on OVCAR-3, 1.74 µM (inactive); in the assay with NCI/ADR-RES it was 2.42 µM (inactive). The GI50 was 2.12 µM (inactive) in the assay on HCC 2998; 1.95 µM (inactive) in the assay with COLO 205; 1.69 µM (inactive) in the assay on SN12C; 1.5 µM (inactive) with A498; 2.19 µM (inactive) with M14; 2.14 µM (inactive) in the assay with SW-620. For the same compound, the GI50 is 1.35 µM (inactive) with UACC-62; 1.82 µM (inactive) in the assay on KM12; 1.54 µM (inactive) in the assay with T47D; 1.85 µM (inactive) in the assay with Hs-578T; 1.71 µM (inactive) with CAKI-1; 1.88 µM (inactive) in the assay with SNB-19. The GI50 in the assay on LOX IMVI was 3.15 µM (inactive).

Consider `CC(C)(O)CCC(O)C(C)(O)C1CCC2(O)C3=CC(=O)C4(O)CC(O)C(O)CC4(C)C3CCC12C.CC(C)(O)CCC(O)C(C)(O)C1CCC2(O)C3=CC(=O)C4CC(O)C(O)CC4(C)C3CCC12C` (centres undefined), for which the GI50 in the assay with DU-145 was > 100 µM (inactive); in the assay on MDA-MB-231 it was > 100 µM (inactive); in the assay on HCT-15 it was above 100 µM; in the assay on EKVX, > 100 µM (inactive); in the assay on OVCAR-3 it was > 100 µM (inactive); with NCI/ADR-RES, > 100 µM (inactive). Also, the GI50 in the assay on CCRF-CEM, in the assay with COLO 205, with SN12C, with A498, in the assay with M14 and with SW-620 was > 100 µM (inactive) throughout. Besides, the GI50 with UACC-62, with KM12, with T47D, in the assay on Hs-578T, in the assay with CAKI-1 and in the assay with SNB-19 was > 100 µM (inactive) in each case. Moreover, in the assay with LOX IMVI, the GI50 was > 100 µM (inactive).
